According to patent US11479528B2, “Heat shock protein 90 inhibitors” (TAIPEI MEDICAL UNIVERSITY, priority 2017, dated 2022):
Like-named read-outs stand apart in the source and are kept apart here.

What was measured:
breast MDA-MB-231 = test: Sulforhodamine B (SRB) assay, breast MDA-MB-231; assay type: cell-based; settings: Homo sapiens
Experimental: (§1) Human cancer cells were purchased from the American Type Culture Collection (Manassas, Va., USA). These cell lines were cultured in RPMI 1640 medium or DMEM supplemented with 10% FBS (v/v) and pencillin (100 U/mL)/streptomycin (100 ug/mL)/amphotericin B (0.25 ug/mL). Cultures were maintained at 37° C. in a humidified atmosphere of 5% CO2/95% air.
(§2) Cells were seeded in 96-well plates in medium with 5% fetal bovine serum. After 24 h, cells were fixed with 10% trichloroacetic acid to represent cell population at the time of drug addition (T0). After additional incubation of DMSO or drugs for 48 h, cells were fixed with 10% trichloroacetic acid and sulforhodamine B at 0.4% (w/v) in 1% acetic acid was added to stain cells. Unbound sulforhodamine B was washed out by 1% acetic acid and sulforhodamine B-bound cells were solubilized with 10 mmol/L Trizma base. The absorbance was read at a wavelength of 515 nm. Using the following absorbance measurements, such as time zero (T0), control growth (C), and cell growth in the presence of the drug (Tx), the percentage growth was calculated at each of the compound concentrations levels. Percentage growth inhibition was calculated as […].

HSP90 α protein = HSP90 α protein (Homo sapiens, UniProt P07900); test: HSP90 ATP-binding / fluorescence polarization competition assay (enzyme inhibition)
Experimental: To assess the inhibition of HSP90 activity within a cellular context, cells were treated with certain substituted aromatic compounds of formula (I) and the inhibition of HSP90 ATP-binding activity in cells was determined by using an ATP pull-down assay. Cells were treated with the compounds for 24 hours and then lysed in TNESV buffer (50 mM Tris, 2 mM EDTA, […], 1 mM activated sodium orthovanadate, 25 mM NaF, 1% Triton X-100 [pH 7.5]) for 30 min at 4° C. Lysates were spun for 30 min at 12000 rpm at 4° C. Protein (200 ug) was incubated with conditioned γ-ATP-polyacrylamide resin in incubation buffer (10 mM Tris-HCl, 50 mM KCl, 5 mM MgCl2, 20 mM Na2MoO4, 0.01% Nonidet P-40) overnight at 4° C., rotating. The resin was then washed four times with incubation buffer. Bound proteins were isolated by boiling with SDS buffer. For the competition studies, fluorescence polarization assays were performed under the following conditions: each 96-well plate contained 5 nM fluorescent GM (geldanamycin), 30 nM HSP90 α protein, and tested inhibitor in a final volume of 100 uL. For each assay, background wells (buffer only), tracer controls (free, fluorescent GMonly), and bound GM controls (fluorescent GM in the presence of HSP90) were included on each assay plate. The fraction of tracer bound to HSP90 was correlated to the mP value and plotted against log 10 values of competitor concentrations. The inhibitor concentration at which 50% of bound GM was displaced was obtained by fitting the data.

leukemia HL60 = test: MTT antiproliferative assay, HL60; assay type: cell-based; settings: Homo sapiens, HL-60
lymphoblast MOLT4 = test: MTT antiproliferative assay, MOLT4; assay type: cell-based; settings: Homo sapiens, MOLT-4
bone marrow K562 = test: MTT antiproliferative assay, K562; assay type: cell-based; settings: Homo sapiens
[1] = test system: HSP90 client proteins, i.e., EGFR, Akt, CDK-4, and HSP70, in HCT-116 tumor cells; test: Western blot of HSP90 client proteins in HCT-116 tumor cells; assay type: cell-based, human; settings: HCT-116 cells, 24 hours after treatment
Experimental: Western blot analysis was performed to detect cell apoptotic signaling activated by substituted aromatic compounds of formula (I). Cells were harvested by scraping with lysis buffer (1 mM EGTA, 1 mM EDTA, 150 mM NaCl, 1% Triton X-100, 2.5 mM sodium pyrophosphate, 1 mM PMSF, 1 mM Na3VO4, 1 ug/mL leupeptin, 1 ug/mL aprotinin, 5 mM NaF in 20 mM Tris-HCl buffer, pH 7.5). Cell lysates were centrifuged at 13,000 g for 30 min. Total protein was determined and equal amounts of protein were separated by SDS-PAGE and immunoblotted with specific antibodies. Proteins were visualized by enhanced chemiluminescence (Amersham, Buckinghamshire, UK).
Total cellular extracts were obtained 24 hours after treatment.

[2] = test system: human colon HCT116 xenograft; test: Human colon HCT116 xenograft model; settings: po; for TGI, tumor growth inhibition: n = 7-8
Experimental: An in vivo study was conducted to evaluate the efficacy of compounds of formula (I) in suppressing tumor growth in a human colon HCT116 xenograft model.

[3] = test system: human lung NSCLC A549 cancer xenograft; test: Human lung NSCLC A549 cancer xenograft model; assay type: in vivo; settings: daily oral administration
[4] = Pharmacokinetic profiles in rat; settings: in vivo
Experimental: A pharmacokinetic study was conducted to evaluate the pharmacokinetic properties of compounds of formula (I).

[5] = Maximum tolerated dose and therapeutic index in vivo; settings: for MTD: in vivo, po
lung A549 = test: Sulforhodamine B (SRB) assay, lung A549; assay type: cell-based, human; settings: Homo sapiens
Experimental: Human cancer cells were purchased from the American Type Culture Collection (Manassas, Va., USA).
Cells were seeded in 96-well plates in medium with 5% fetal bovine serum. […] Unbound sulforhodamine B was washed out by 1% acetic acid and sulforhodamine B-bound cells were solubilized with 10 mmol/L Trizma base. […] Using the following absorbance measurements, such as time zero (T0), control growth (C), and cell growth in the presence of the drug (Tx), the percentage growth was calculated at each of the compound concentrations levels. Percentage growth inhibition was calculated as […].

colorectal HCT116 = test: Sulforhodamine B (SRB) assay, colorectal HCT116; assay type: cell-based; settings: Homo sapiens
Experimental: as §1, §2

liver Hep3B = test: Sulforhodamine B (SRB) assay, liver Hep3B; assay type: cell-based; settings: Homo sapiens
Experimental: as §1, §2

HUVEC cells = test: Sulforhodamine B (SRB) assay, HUVEC; settings: for GI50: Homo sapiens, HUVEC
Experimental: as §1, §2

[6] = A549, 48 h, read-out: GI50 Lung A549
[7] = HCT-116, 48 h, read-out: GI50 Colorectal HCT116
[8] = 48 h, read-out: GI50 Liver Hep3B
[9] = MDA-MB-231, 48 h, read-out: GI50 Breast MDA-MB-231
[10] = MDA-MB-231, read-out: MDA-MB-231 GI50

| Compound | IC50 (HSP90 α protein) | expression levels of the chaperone HSP70 [1] | levels of HSP90 client proteins (EGFR, Akt, CDK-4) [1] | TGI, tumor growth inhibition ([2]; 100 mg/kg, qd) | Vd ([4]; iv, 2 mg/kg) | Cmax ([4]; po, 20 mg/kg) | Tmax ([4]; po, 20 mg/kg) | MTD [5] | GI50 (lung A549; [6]) | GI50 (lung A549; A549, read-out: A549 GI50) | GI50 (colorectal HCT116; [7]) | GI50 (colorectal HCT116; HCT-116, read-out: HCT116 GI50) | GI50 (liver Hep3B; [8]) | GI50 (liver Hep3B; read-out: Hep3B GI50) | GI50 (breast MDA-MB-231; [9]) | GI50 (breast MDA-MB-231; [10]) | TI, Therapeutic Index measured by GI50(HUVEC)/GI50(A549) (HUVEC cells) | GI50 (HUVEC cells; 48 h, read-out: GI50 HUVEC) | GI50 (HUVEC cells; read-out: HUVEC GI50) | AUC(0-inf) ([4]; iv, 2 mg/kg) | other results |
| --- | --- | --- | --- | --- | --- | --- | --- | --- | --- | --- | --- | --- | --- | --- | --- | --- | --- | --- | --- | --- | --- |
| CCN(C(=O)c1cc(C(C)C)c(O)cc1O)c1cccnc1 [Compound 18b, N-ethyl-2,4-dihydroxy-5-isopropyl-N-(pyridin-3-yl)benzamide] | 110 ± 3.13 nM | increase | substantial depletion | 74.3% | 5.5 ± 1.1 L/kg | 40 ± 13 ng/mL | 6 ± 2 h | 250 mg/kg | – | – | – | – | – | – | – | – | – | – | – | – | GI50 (breast MDA-MB-231; MDA-MB-231, Table 2, SRB, read-out: MDA-MB-231 GI50): 90 ± 10 nM; IC50 (leukemia HL60): 240 ± 40 nM; IC50 (lymphoblast MOLT4): 190 ± 10 nM; IC50 (bone marrow K562): 130 ± 90 nM; Loss of Body ([2]; 25 mg/kg, qd): 0%; TGI, tumor growth inhibition ([2]; 25 mg/kg, qd): 55.6%; Loss of Body ([2]; 100 mg/kg, qd): 0%; TGI ([3]; 25 mg/kg): 46.7%; TGI ([3]; 50 mg/kg): 46.9%; TGI ([3]; 100 mg/kg): 50.9%; body weight loss ([3]; 25, 50, and 100 mg/kg): without significant body weight loss; AUC(0-inf) ([4]; iv, 2 mg/kg, AUC(0-inf), IV (2 mg/kg)): 520 ± 14 ng·h/mL; clearance ([4]; iv, 2 mg/kg, CL, IV (2 mg/kg)): ~64 mL/min/kg; half-life ([4]; iv, 2 mg/kg, T1/2, rat, IV (2 mg/kg)): 4 ± 1.7 h; bioavailability ([4]; oral, 20 mg/kg): 25%; AUC(0-inf) ([4]; po, 20 mg/kg, AUC(0-inf), PO (20 mg/kg)): ~1310 ng·h/mL; half-life ([4]; po, 20 mg/kg, T1/2, rat, PO (20 mg/kg)): ~27.7 h |
| CC(C)c1cc(C(=O)N(C)c2ccc3[nH]ccc3c2)c(O)cc1O [Compound 20b, 2,4-dihydroxy-N-(1H-indol-5-yl)-5-isopropyl-N-methylbenzamide] | 115 ± 10.7 nM | increase | substantial depletion | – | 18 ± 4.5 L/kg | 82 ± 34 ng/mL | 2.2 ± 1.8 h | < 250 mg/kg | 170 ± 10 nM | 170 ± 10 nM | 1000 ± 490 nM | 1000 ± 490 nM | 180 ± 40 nM | 180 ± 40 nM | 70 ± 10 nM | 70 ± 10 nM | 3.4 | 570 ± 20 nM | 570 ± 20 nM | 142 ± 25 ng·h/mL | Loss of Body ([2]; 100 mg/kg, qd × 7/5 on 2 off, Day 5): −8.5%; TGI, tumor growth inhibition ([2]; 100 mg/kg, qd × 7/5 on 2 off): 37.7%; clearance ([4]; iv, 2 mg/kg): 237 ± 37 mL/min/kg; half-life ([4]; iv, 2 mg/kg): 1.3 ± 0.3 h; AUC(0-inf) ([4]; po, 20 mg/kg): 533 ± 154 ng·h/mL; bioavailability ([4]; po, 20 mg/kg): 37%; half-life ([4]; po, 20 mg/kg): 7.5 ± 1.3 h; TI, Therapeutic Index, ratio of MTD to minimum efficacious dose (MED) [5]: <2.5 |
| CC(C)c1cc(C(=O)N(C)c2ccc3c(ccn3C)c2)c(O)cc1O [Compound 20g, 2,4-dihydroxy-5-isopropyl-N-methyl-N-(1-methyl-1H-indol-5-yl)benzamide] | 106 ± 7.58 nM | increase | substantial depletion | 83.9% | 4.3 ± 1.3 L/kg | 12.8 ± 8.3 ng/mL | 0.5 ± 0.4 h | < 250 mg/kg | 280 ± 20 nM | 280 ± 20 nM | 700 ± 60 nM | 700 ± 60 nM | 570 ± 320 nM | 570 ± 320 nM | 100 ± 20 nM | 100 ± 20 nM | 2.9 | 820 ± 30 nM | 820 ± 30 nM | 288 ± 59 ng·h/mL | clearance ([4]; iv, 2 mg/kg): 117 ± 23 mL/min/kg; half-life ([4]; iv, 2 mg/kg): 0.7 ± 0.1 h; AUC(0-inf) ([4]; po, 20 mg/kg): 36 ± 5 ng·h/mL; bioavailability ([4]; po, 20 mg/kg): 1.3%; half-life ([4]; po, 20 mg/kg): 2.2 ± 0.6 h; TI, Therapeutic Index, ratio of MTD to minimum efficacious dose (MED) [5]: <2.5 |
